# Legend:
# Assay type in all cases: in vivo
# [1] = test system: barnyardgrass (Echinochloa crus-galli); assay: Test A preemergence, barnyardgrass; settings: 0 to 100 scale
# From the text: (§1) Seeds of plant species selected from barnyardgrass (Echinochloa crus-galli), kochia (Kochia scoparia), ragweed (common ragweed, Ambrosia elatior), ryegrass, It. (Italian ryegrass, Lolium multiflorum), foxtail, green (green foxtail, Setaria viridis), and pigweed (Amaranthus retroflexus) were planted into a blend of loam soil and sand and treated preemergence with a directed soil spray using test chemicals formulated in a non-phytotoxic solvent mixture which included a surfactant. At the same time, plants selected from these weed species and also wheat (Triticum aestivum), corn (Zea mays), blackgrass (Alopecurus myosuroides), and galium (catchweed bedstraw, Galium aparine) were planted in pots containing the same blend of loam soil and sand and treated with postemergence applications of test chemicals formulated in the same manner. Plants ranged in height from 2 to 10 cm and were in the one- to two-leaf stage for the postemergence treatment. Treated plants and untreated controls were maintained in a greenhouse for approximately 10 d, after which time all treated plants were compared to untreated controls and visually evaluated for injury. Plant response ratings, summarized in Table A, are based on a 0 to 100 scale where 0 is no effect and 100 is complete control. A dash (-) response means no test result.
# [2] = test system: kochia (Kochia scoparia); assay: Test A preemergence, kochia; settings: 0 to 100 scale
# From the text: as §1
# [3] = test system: ragweed (common ragweed, Ambrosia elatior); assay: Test A preemergence, ragweed; settings: 0 to 100 scale
# From the text: as §1
# [4] = test system: ryegrass, It. (Italian ryegrass, Lolium multiflorum); assay: Test A preemergence, Italian ryegrass; settings: 0 to 100 scale
# From the text: as §1
# [5] = test system: foxtail, green (green foxtail, Setaria viridis); assay: Test A preemergence, green foxtail; settings: 0 to 100 scale
# From the text: as §1
# [6] = test system: pigweed (Amaranthus retroflexus); assay: Test A preemergence, pigweed; settings: 0 to 100 scale
# From the text: as §1
# [7] = test system: barnyardgrass (Echinochloa crus-galli); assay: Test A postemergence, barnyardgrass; settings: 0 to 100 scale
# From the text: as §1
# [8] = test system: kochia (Kochia scoparia); assay: Test A postemergence, kochia; settings: 0 to 100 scale
# From the text: as §1
# [9] = test system: ragweed (common ragweed, Ambrosia elatior); assay: Test A postemergence, ragweed; settings: 0 to 100 scale
# From the text: as §1
# [10] = test system: ryegrass, It. (Italian ryegrass, Lolium multiflorum); assay: Test A postemergence, Italian ryegrass; settings: 0 to 100 scale
# From the text: as §1
# [11] = test system: foxtail, green (green foxtail, Setaria viridis); assay: Test A postemergence, green foxtail; settings: 0 to 100 scale
# From the text: as §1
# [12] = test system: pigweed (Amaranthus retroflexus); assay: Test A postemergence, pigweed; settings: 0 to 100 scale
# From the text: as §1
# [13] = test system: wheat (Triticum aestivum); assay: Test A postemergence, wheat; settings: 0 to 100 scale
# From the text: as §1
# [14] = test system: corn (Zea mays); assay: Test A postemergence, corn; settings: 0 to 100 scale
# From the text: as §1
# [15] = test system: blackgrass (Alopecurus myosuroides); assay: Test A postemergence, blackgrass; settings: 0 to 100 scale
# From the text: as §1
# [16] = test system: galium (catchweed bedstraw, Galium aparine); assay: Test A postemergence, galium; settings: 0 to 100 scale
# From the text: as §1
# [17] = test system: barnyardgrass (Echinochloa crus-galli); assay: Test B flooded paddy test, barnyardgrass; settings: Flood, 250 g ai/ha applied to paddy water, 2-leaf stage, 13 to 15 d; scale of 0 to 100 where 0 is no effect and 100 is complete control
# Description: (§2) Plant species in the flooded paddy test selected from rice (Oryza sativa), sedge, umbrella (small-flower umbrella sedge, Cyperus difformis), ducksalad (Heteranthera limosa), and barnyardgrass (Echinochloa crus-galli) were grown to the 2-leaf stage for testing. At the time of treatment, test pots were flooded to 3 cm above the soil surface, treated by application of test compounds directly to the paddy water, and then maintained at that water depth for the duration of the test. Treated plants and controls were maintained in a greenhouse for 13 to 15 d, after which time all species were compared to controls and visually evaluated. Plant response ratings, summarized in Table B, are based on a scale of 0 to 100 where 0 is no effect and 100 is complete control. A dash (-) response means no test result.
# [18] = test system: ducksalad (Heteranthera limosa); assay: Test B flooded paddy test, ducksalad; settings: Flood, 250 g ai/ha applied to paddy water, 2-leaf stage, 13 to 15 d; scale of 0 to 100 where 0 is no effect and 100 is complete control
# Description: as §2
# [19] = test system: rice (Oryza sativa); assay: Test B flooded paddy test, rice; settings: Flood, 250 g ai/ha applied to paddy water, 2-leaf stage, 13 to 15 d; scale of 0 to 100 where 0 is no effect and 100 is complete control
# Description: as §2
# [20] = test system: sedge, umbrella (small-flower umbrella sedge, Cyperus difformis); assay: Test B flooded paddy test, umbrella sedge; settings: Flood, 250 g ai/ha applied to paddy water, 2-leaf stage, 13 to 15 d; scale of 0 to 100 where 0 is no effect and 100 is complete control
# Description: as §2
smiles,measurement,setting,value
"COc1c(C)nn(C)c(=O)c1C1=C(C)CCc2ccccc21 [Compound 1, 4-(3,4-dihydro-2-methyl-1-naphthalenyl)-5-methoxy-2,6-dimethyl-3(2H)-pyridazinone]","Plant response rating, Barnyardgrass",[1]; 1000 g ai/ha,80
same,"Plant response rating, Kochia",[2]; 1000 g ai/ha,70
same,"Plant response rating, Ragweed",[3]; 1000 g ai/ha,100
same,"Plant response rating, Ryegrass, It.",[4]; 1000 g ai/ha,100
same,"Plant response rating, Foxtail, Green",[5]; 1000 g ai/ha,70
same,"Plant response rating, Pigweed",[6]; 1000 g ai/ha,60
same,"Plant response rating, Barnyardgrass","[7]; 1000 g ai/ha, 0 no effect, 100 complete control",60
same,"Plant response rating, Kochia",[8]; 1000 g ai/ha,20
same,"Plant response rating, Ragweed",[9]; 1000 g ai/ha,90
same,"Plant response rating, Ryegrass, Italian",[10]; 1000 g ai/ha,90
same,"Plant response rating, Foxtail, Green",[11]; 1000 g ai/ha,60
same,"Plant response rating, Pigweed",[12]; 1000 g ai/ha,80
same,"Plant response rating, Wheat",[13]; 1000 g ai/ha,0
same,"Plant response rating, Corn",[14]; 1000 g ai/ha,10
same,"Plant response rating, Blackgrass",[15]; 1000 g ai/ha,70
same,"Plant response rating, Galium",[16]; 1000 g ai/ha,100
"CC1=C(c2c(O)c(C)nn(C)c2=O)c2ccccc2CC1 [Compound 2, 4-(3,4-dihydro-2-methyl-1-naphthalenyl)-5-hydroxy-2,6-dimethyl-3(2H)-pyridazinone]","Plant response rating, Barnyardgrass",[1]; 125 g ai/ha,0
same,"Plant response rating, Barnyardgrass",[1]; 500 g ai/ha,0
same,"Plant response rating, Kochia",[2]; 125 g ai/ha,0
same,"Plant response rating, Kochia",[2]; 500 g ai/ha,80
same,"Plant response rating, Ragweed",[3]; 125 g ai/ha,40
same,"Plant response rating, Ragweed",[3]; 500 g ai/ha,90
same,"Plant response rating, Ryegrass, It.",[4]; 125 g ai/ha,40
same,"Plant response rating, Ryegrass, It.",[4]; 500 g ai/ha,50
same,"Plant response rating, Foxtail, Green",[5]; 125 g ai/ha,0
same,"Plant response rating, Foxtail, Green",[5]; 500 g ai/ha,0
same,"Plant response rating, Pigweed",[6]; 125 g ai/ha,0
same,"Plant response rating, Pigweed",[6]; 500 g ai/ha,80
same,"Plant response rating, Barnyardgrass",[7]; 125 g ai/ha,0
same,"Plant response rating, Barnyardgrass",[7]; 500 g ai/ha,20
same,"Plant response rating, Kochia",[8]; 125 g ai/ha,80
same,"Plant response rating, Kochia",[8]; 500 g ai/ha,90
same,"Plant response rating, Ragweed",[9]; 125 g ai/ha,80
same,"Plant response rating, Ragweed",[9]; 500 g ai/ha,90
same,"Plant response rating, Ryegrass, It.",[10]; 125 g ai/ha,60
same,"Plant response rating, Ryegrass, Italian",[10]; 500 g ai/ha,100
same,"Plant response rating, Foxtail, Green",[11]; 125 g ai/ha,10
same,"Plant response rating, Foxtail, Green",[11]; 500 g ai/ha,70
same,"Plant response rating, Pigweed",[12]; 125 g ai/ha,80
same,"Plant response rating, Pigweed",[12]; 500 g ai/ha,90
same,"Plant response rating, Wheat",[13]; 125 g ai/ha,0
same,"Plant response rating, Wheat",[13]; 500 g ai/ha,0
same,"Plant response rating, Corn",[14]; 125 g ai/ha,10
same,"Plant response rating, Corn",[14]; 500 g ai/ha,10
same,"Plant response rating, Blackgrass",[15]; 125 g ai/ha,0
same,"Plant response rating, Blackgrass",[15]; 500 g ai/ha,20
same,"Plant response rating, Galium",[16]; 125 g ai/ha,90
same,"Plant response rating, Galium",[16]; 500 g ai/ha,100
same,"Plant response rating, Barnyardgrass",[17],0
same,"Plant response rating, Ducksalad",[18],0
same,"Plant response rating, Rice",[19],0
same,"Plant response rating, Sedge, Umbrella",[20],0

# Reference: patent US11213030B2, “4-(3,4-dihydronaphth-1-yl or 2H-chromen-4-yl)-5-hydroxy-2H-pyradizin-3-ones as herbicides” (FMC Corporation, priority 2017, dated 2022)
